We go through five compounds from patent publication US9273115B2, “Method for controlling the biological activity of a protein in a vertebrate cell” (CENTRE NATIONAL DE LA RECHERCHE SCIENTIFIQUE (CNRS), priority 2009, dated 2016).

Numbering of substitutions follows the chain as printed.

For data set [1], the target named is T1, Cre-ERM^Dc (Homo sapiens, UniProt P03372, A350M/G442Y/G521S/L346I/L466S/M388Q/Y459N/Y526D).
T1 sequence (P03372 311-547 L346I/A350M/M388Q/G442Y/Y459N/L466S/G521S/Y526D limits assumed): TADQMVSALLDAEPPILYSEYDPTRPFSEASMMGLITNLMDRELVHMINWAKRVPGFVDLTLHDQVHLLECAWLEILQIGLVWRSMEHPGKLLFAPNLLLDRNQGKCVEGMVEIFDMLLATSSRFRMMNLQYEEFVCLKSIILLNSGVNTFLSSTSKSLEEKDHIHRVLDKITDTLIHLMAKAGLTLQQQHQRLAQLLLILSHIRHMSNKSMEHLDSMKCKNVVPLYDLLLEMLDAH
As to the kind of experiment: PCR detection of Cre-mediated floxed DNA excision in Cre-ERM^Dc/RXRα^+/(LNL) F9 cells. Also on record: Cre recombinase (bacteriophage P1); expressed in transfected cells. The settings on record: F9 clone; one of 9 active clones. In kind it is cell-based. The protocol: (§1) F9^+/(LNL) cells (Clifford et al., 1996; Metzger et al., 1995) were coelectroporated with 5 μg pCre-ER expression vectors and 1 μg pPGK-hyg, that had been digested with AseI and PvuII, respectively. Hygromycin-resistant clones were obtained as described (Metzger et al., 1995). To analyse Cre-mediated DNA excision, such clones were plated in 24-well plates at a density of 6×10^3 cells, and grown in the presence of 100 nM all-trans retinoic acid (RA). […] PCR amplification of a segment of the RXRα WT allele (+) and recombined RXRα (Δ) allele from their genomic DNA was carried out using the primers 5′-[…]-3′ (SEQ ID No. 1) and 5′-[…]-3′ (SEQ ID No. 2) (+, ˜300 bp; Δ, ˜350 bp), as described (Feil et al., 1997).

The target in data set [2] is T2, Cre-ERM^Db (Homo sapiens, UniProt P03372, A350M/G400V/G521S/L346I/M388Q/Y526D).
T2 sequence (P03372 311-547 L346I/A350M/M388Q/G400V/G521S/Y526D limits assumed): T1 sequence (P03372 311-547 L346I/A350M/M388Q/G442Y/Y459N/L466S/G521S/Y526D limits assumed) with G90V, Y132G, N149Y, S156L
Briefly: X-Gal staining of skin sections of K14-Cre-ERM^Db/RosaR26R mice (Cre-mediated recombination in keratinocytes). The settings on record: for Cre-mediated recombination in Cre-ERM^Db-expressing keratinocytes of ear skin (distal) / Cre-mediated recombination in Cre-ERM^Db-expressing keratinocytes of tail treated skin: daily tail topical treatment 1 or 0.2 mg for 5 days; for Cre-mediated recombination in keratinocytes expressing Cre-ERM^Db: ear treatment 1 mg/day for 5 days, ear sections at day 12.
Description: For topical application, DHB, DHBD, HMB or MB dissolved in ethanol at 100 mg/ml was diluted two times in acetone, and 20 μl (1 mg) was daily applied on one cm^2 ear or tail skin for 5 days. For intraperitoneal and gavage administration, compounds dissolved in ethanol were diluted at 10 mg/ml in sunflower oil, and 100 μl were i.p. injected or orally administered to mice.
β-Galactosidase histochemistry was performed on 10 μm-thick frozen section, stained with X-Gal (5-bromo-4-chloro-3-indolyl β-D-galactoside), as described (Brocard et al., 1997).

Data set [3] concerns the target T1, Cre-ERM^Dc. Briefly: Immunocytochemistry of Cre-ERM^Dc (translocation from cytoplasm to nucleus). Format: cell-based. Also on record: Cre recombinase (bacteriophage P1); expressed in transfected cells; host or cells: Cos-1 cells (transient, pCre-ERM^Dc) for A3. The note with it: data not shown. The protocol:
(§2) Cos-1 cells grown on Lab-TekII chamber slides (Nalge Nunc International) were transfected with 0.25 μg pCre-ERM expression vectors with Fugene, according to the manufacturer's instruction and treated with vehicle (ethanol) or 3 μM DHB for 24 hrs.

Data set [4] is described as follows: Plasma levels after i.p. administration. In kind it is in vivo, mice.
Description: For intraperitoneal and gavage administration, compounds dissolved in ethanol were diluted at 10 mg/ml in sunflower oil, and 100 μl were i.p. injected or orally administered to mice.
The target of data set [5] is T2, Cre-ERM^Db. Briefly: Immunocytochemistry of pCre-ERM^Db-transfected Cos-1 cells (nuclear translocation). In kind it is cell-based, monkey. Also on record: Cre recombinase (bacteriophage P1); expressed in transfected cells; host or cells: Cos-1 cells (transient, pCre-ERM^Db) for A2. The note with it: 3 μM DHB for 24 hrs. How it is done: as §2
Data set [6] has as its target T3, Cre-ERM^Da (Homo sapiens, UniProt P03372, A350M/G521S/L346I/M388Q/Y526D).
T3 sequence (P03372 311-547 L346I/A350M/M388Q/G521S/Y526D limits assumed): T1 sequence (P03372 311-547 L346I/A350M/M388Q/G442Y/Y459N/L466S/G521S/Y526D limits assumed) with Y132G, N149Y, S156L
As to the kind of experiment: PCR detection of Cre-mediated floxed DNA excision in Cre-ERM^Da/RXRα^+/(LNL) F9 cells. The note with it: 3 μM DHB, 3 days. Also on record: a fusion protein between Cre and the L346I, A350M, M388Q, G521S, Y526D mutant ERα LBD; Cre recombinase (bacteriophage P1); expressed in transfected cells. In kind it is cell-based, mouse. How it is done: as §1

Data set [7] deals with T2, Cre-ERM^Db. How it is done:
as §1

Data set [8] is described as follows: Blood hematology and plasma biochemical profile at D19. Format: in vivo, mice. Also on record: Bilirubin / Uric acid / Iron: unit not given here. The note with it: for ALAT / ALP / ASAT / Albumin / Bilirubin / Cholesterol / Glucose / HCT, hematocrit / HGB, hemoglobin / Iron / K / MCH, mean corpuscular hemoglobin / MCHC, mean corpuscular hemoglobin concentration / MCV, mean corpuscular volume / Magnesium / Na / Phosphorus / Total protein / Triglycerides / Uric acid: 1 mg daily ip D1 to D5, means +/− SD, n = 3.

A short description of data set [9]: Liver histology of treated mice. The settings on record: DHB-treated mice. In kind it is in vivo.
Data set [10] deals with T3, Cre-ERM^Da. Briefly: Immunocytochemistry of pCre-ERM^Da-transfected Cos-1 cells (nuclear translocation). Format: cell-based, African green monkey. Also on record: a fusion protein between Cre and the L346I, A350M, M388Q, G521S, Y526D mutant ERα LBD; Cre recombinase (bacteriophage P1); expressed in transfected cells; host or cells: Cos-1 cells (transient, pCre-ERM^Da) for A1. The settings on record: 3 μM DHB for 24 hrs. How it is done: as §2

Turning to `O=C(C(=O)c1ccc(O)cc1)c1ccc(O)cc1` [DHB, 4,4′-dihydroxybenzil], the “Cre-ERM^Dc Cre-mediated recombinase activity” value on Cre-ERM^Dc [1] was “strictly DHB-dependent”. On Cre-ERM^Db [2] (1 mg topically to one ear D1 to D5, treated ear sampled at D12), the “β-galactosidase expression in epidermal keratinocytes” value (“β-galactosidase expression” below) was “most, if not all epidermal keratinocytes from the treated ear expressed β-galactosidase”. On Cre-ERM^Db [2], the “Cre-mediated recombination in Cre-ERM^Db-expressing keratinocytes of ear skin (distal)” value is given as “induced efficient Cre-mediated recombination”, the “Cre-mediated recombination in Cre-ERM^Db-expressing keratinocytes of tail treated skin” value is “induced efficient Cre-mediated recombination” and the “Cre-mediated recombination in keratinocytes expressing Cre-ERM^Db” value was “efficiently induced”. In addition, on Cre-ERM^Db [2] (gavage 2 mg/day for 5 days), the “β-galactosidase expression” value is on record as “induced”. Besides, on Cre-ERM^Db [2] (intraperitoneal injection 1 mg/day for 5 days), the “β-galactosidase expression” value is recorded as “induced”. The “translocation of Cre-ERM^Dc from the cytoplasm to the nucleus” value at Cre-ERM^Dc [3] was “induced translocation”. Also, the in vivo clearance result in [4] (1 mg i.p.) was “high”. In [4] (1 mg i.p., 22 hours after the two-hour sample), the plasma levels result is on record as “undetectable”. The concentration at 2 h in data set [4] (mouse, plasma, ip, two hours after 1 mg i.p.) amounted to 550 ng/mL. In addition, the “Cre-ERM^Db nuclear translocation” value at Cre-ERM^Db [5] is “induced its nuclear translocation”. The “Cre-ERM^Da recombinase activity” value on Cre-ERM^Da [6] was “induced Cre-ERM^Da recombinase activity”. The “Cre-mediated floxed DNA excision (Cre-ERM^Db recombinase activity)” value on Cre-ERM^Db [7] (F9 clone, ligand 3 μM) is on record as “efficiently induced Cre-mediated floxed DNA excision”. Further, the “blood hematology and plasma biochemical profiles versus vehicle” value in data set [8] (1 mg daily ip D1 to D5) is listed as “did not reveal major difference”. In data set [8] (female mice), the ALAT is recorded as 27.7 +/− 2.9 U/l, the ALP was 137.0 +/− 14.1 U/l, the ASAT is listed as 143.3 +/− 91.3 U/l and the Albumin is 28.7 ± 0.6 g/L. In [8] (female mice), the Bilirubin is given as 1.3 +/− 0.4; the Cholesterol came out at 1.8 ± 0.1 mmol/L; the Glucose turned out to be 18.7 ± 3.5 mmol/L; the “HCT, hematocrit” value was 38.9 +/− 2.3%. In data set [8] (female mice), the “HGB, hemoglobin” value came out at 13.3 ± 0.8 g/dL; the Iron is on record as 25.6 +/− 3.9; the K was found to be 5.8 ± 0.5 mmol/L; the “MCH, mean corpuscular hemoglobin” value came to 16.1 ± 0.2 pg. In addition, in [8] (female mice), the “MCHC, mean corpuscular hemoglobin concentration” value is 34.2 ± 0.2 g/dL; the “MCV, mean corpuscular volume” value is 47.2 ± 0.9 fL; the Magnesium was 1.5 ± 0.1 mmol/L; the Na came to 152 ± 1.0 mmol/L. Also, in data set [8] (female mice), the Phosphorus is 3.2 ± 0.1 mmol/L, the Total protein turned out to be 48 ± 2.6 g/L, the Triglycerides was 0.6 ± 0.1 mmol/L and the Uric acid is listed as 193.0 +/− 58.4. Further, in data set [8] (male mice), the ALAT is listed as 34.7 +/− 17.5 U/l, the ALP is listed as 114.3 +/− 8.1 U/l, the ASAT is given as 194 +/− 45.5 U/l and the Albumin turned out to be 27.3 ± 3.5 g/L. Also, in [8] (male mice), the Bilirubin is listed as 2.0 +/− 0.3; the Cholesterol was determined as 2.2 ± 0.2 mmol/L; the Glucose was 21.4 ± 7.2 mmol/L; the “HCT, hematocrit” value is 40.0 +/− 3.7%. In addition, in [8] (male mice), the “HGB, hemoglobin” value came out at 14.0 ± 1.3 g/dL; the Iron was 24.9 +/− 1.4; the K stood at 5.9 mmol/L; the “MCH, mean corpuscular hemoglobin” value turned out to be 16.0 ± 0.2 pg. Further, in [8] (male mice), the “MCHC, mean corpuscular hemoglobin concentration” value came to 34.9 ± 0.1 g/dL; the “MCV, mean corpuscular volume” value worked out at 45.8 ± 0.5 fL; the Magnesium is 1.2 ± 0.2 mmol/L; the Na is 149.7 ± 6.1 mmol/L. In data set [8] (male mice), the Phosphorus was 3.6 ± 0.6 mmol/L, the Total protein was found to be 48.3 ± 7.1 g/L, the Triglycerides was determined as 0.8 ± 0.2 mmol/L and the Uric acid is given as 235.7 +/− 132.5. Moreover, in data set [9], the “histological defects in liver” value is recorded as “no histological defects”. Moreover, the “Cre-ERM^Da protein nuclear translocation” value on Cre-ERM^Da [10] is reported as “induced Cre-ERM^Da protein nuclear translocation”.

`COc1ccc(C(=O)C(=O)c2ccc(O)cc2)cc1` [HMB, 4-hydroxy-4′-methoxybenzyl]: the “Cre-mediated recombination in keratinocytes expressing Cre-ERM^Db” value on Cre-ERM^Db [2] is “Induction of Cre-ERM^Db recombinase activity”.

In the case of 4-hydroxytamoxifen [OHT], at Cre-ERM^Db [7], the “Cre-ERM^Db recombinase activity” value is given as “neither E2 nor OHT induced any recombinase activity”.

For the compound 4,4′-methoxybenzyl [MB], the “Cre-mediated recombination in keratinocytes expressing Cre-ERM^Db” value on Cre-ERM^Db [2] is given as “efficiently induced”.

As to `CC(C)(C)C(=O)Oc1ccc(C(=O)C(=O)c2ccc(OC(=O)C(C)(C)C)cc2)cc1` [DHBD, 4,4′-dihydroxylbenzyl dipivalate], on Cre-ERM^Db [2], the “Cre-mediated recombination in Cre-ERM^Db-expressing keratinocytes of ear skin (distal)” value is recorded as “induced efficient Cre-mediated recombination” and the “Cre-mediated recombination in Cre-ERM^Db-expressing keratinocytes of tail treated skin” value was “induced efficient Cre-mediated recombination”.
